Laboratory results published in PMC12846815, “Structural basis for iterative methylation by a cobalamin-dependent radical S-adenosylmethionine enzyme in cystobactamids biosynthesis” (Proceedings of the National Academy of Sciences of the …, 2026).

Key:
ccCysS [1] = target: T1, ccCysS (Corallococcus sp. CA054B, UniProt A0A3A8HCN5); assay: X-ray crystal structure, […] Å; type: binding; conditions: active site, one conformer; with Met, 5′dA, Cbl and [Fe4S4]; anoxic, pH 6.0
T1 construct: gene D7V80_23740; codon-optimised gene in pSUMO, N-terminal SUMO tag cleaved with Ulp1; E. coli BL21(DE3) with pDB1282 and pBAD42-BtuCEDFB; monomer; TLS groups span residues 5 to 704
T1 sequence (A0A3A8HCN5 1-645): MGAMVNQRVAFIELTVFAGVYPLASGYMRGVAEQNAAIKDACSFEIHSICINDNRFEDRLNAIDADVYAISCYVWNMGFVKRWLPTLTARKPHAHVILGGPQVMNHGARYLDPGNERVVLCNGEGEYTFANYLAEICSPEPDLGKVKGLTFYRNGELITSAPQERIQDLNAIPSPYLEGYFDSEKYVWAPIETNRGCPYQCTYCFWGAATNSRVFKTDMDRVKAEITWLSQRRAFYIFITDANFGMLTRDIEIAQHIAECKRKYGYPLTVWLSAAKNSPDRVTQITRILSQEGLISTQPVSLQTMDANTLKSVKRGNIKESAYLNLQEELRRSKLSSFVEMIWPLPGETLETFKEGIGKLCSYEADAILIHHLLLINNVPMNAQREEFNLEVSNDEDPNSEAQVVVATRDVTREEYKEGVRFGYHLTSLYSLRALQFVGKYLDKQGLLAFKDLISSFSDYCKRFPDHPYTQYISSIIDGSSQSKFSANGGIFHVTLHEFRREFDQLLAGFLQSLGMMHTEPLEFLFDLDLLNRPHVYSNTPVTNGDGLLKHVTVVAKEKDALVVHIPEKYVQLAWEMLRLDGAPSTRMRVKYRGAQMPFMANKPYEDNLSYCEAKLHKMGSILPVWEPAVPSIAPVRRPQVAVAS

ccCysS [2] = target: T1, ccCysS; assay: X-ray crystal structure, […] Å; type: binding; conditions: active site, two conformers; with Met, 5′dA, Cbl and [Fe4S4]; anoxic, pH 6.0
ccCysS [3] = target: T2, ccCysS (Corallococcus sp. CA054B, UniProt A0A3A8HCN5, W271A); assay: LC-MS product quantification; type: biochemical; conditions: 500 µM SAM, 2 mM Ti(III) citrate, pH 7.5, room temperature
T2 construct: gene D7V80_23740; codon-optimised gene in pSUMO, N-terminal SUMO tag cleaved with Ulp1; E. coli BL21(DE3) with pDB1282 and pBAD42-BtuCEDFB; monomer; TLS groups span residues 5 to 704
T2 sequence (A0A3A8HCN5 1-645 W271A): T1 sequence (A0A3A8HCN5 1-645)

cbCysS = target: T3, cbCysS (Cystobacter sp. Cbv34, UniProt A0A0H4NV78); assay: LC-MS product quantification; type: biochemical; conditions: 500 µM SAM, 2 mM Ti(III) citrate, pH 7.5, room temperature
T3 construct: gene cysS; codon-optimised gene in pSUMO, N-terminal SUMO tag cleaved with Ulp1; E. coli BL21(DE3) with pDB1282 and pBAD42-BtuCEDFB; monomer
T3 sequence (A0A0H4NV78 1-642): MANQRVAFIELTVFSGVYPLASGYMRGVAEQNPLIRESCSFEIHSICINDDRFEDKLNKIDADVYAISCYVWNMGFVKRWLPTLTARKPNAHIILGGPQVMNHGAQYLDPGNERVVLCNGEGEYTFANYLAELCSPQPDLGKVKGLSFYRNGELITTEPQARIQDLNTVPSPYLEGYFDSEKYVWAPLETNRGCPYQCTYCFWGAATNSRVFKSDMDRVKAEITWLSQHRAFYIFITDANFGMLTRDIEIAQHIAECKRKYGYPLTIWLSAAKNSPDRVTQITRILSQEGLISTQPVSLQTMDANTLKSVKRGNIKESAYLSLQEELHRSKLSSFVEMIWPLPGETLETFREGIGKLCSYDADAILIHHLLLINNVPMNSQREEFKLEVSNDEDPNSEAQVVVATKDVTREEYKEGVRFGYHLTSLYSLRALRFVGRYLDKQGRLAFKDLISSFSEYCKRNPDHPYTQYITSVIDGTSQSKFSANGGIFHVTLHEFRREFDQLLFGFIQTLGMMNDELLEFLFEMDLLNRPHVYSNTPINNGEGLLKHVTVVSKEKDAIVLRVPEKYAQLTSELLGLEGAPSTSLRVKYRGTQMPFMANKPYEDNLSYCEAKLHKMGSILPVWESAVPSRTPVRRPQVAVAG

ccCysS [4] = target: T1, ccCysS; assay: LC-MS product quantification; type: biochemical; conditions: 500 µM SAM, 2 mM Ti(III) citrate, pH 7.5, room temperature
ccCysS [5] = target: T4, ccCysS (Corallococcus sp. CA054B, UniProt A0A3A8HCN5, F485L); assay: LC-MS product quantification; type: biochemical; conditions: 500 µM SAM, 2 mM Ti(III) citrate, pH 7.5, room temperature
T4 construct: gene D7V80_23740; codon-optimised gene in pSUMO, N-terminal SUMO tag cleaved with Ulp1; E. coli BL21(DE3) with pDB1282 and pBAD42-BtuCEDFB; monomer; TLS groups span residues 5 to 704
T4 sequence (A0A3A8HCN5 1-645 F485L): T1 sequence (A0A3A8HCN5 1-645)

ccCysS [6] = target: T5, ccCysS (Corallococcus sp. CA054B, UniProt A0A3A8HCN5, F485W); assay: LC-MS product quantification; type: biochemical; conditions: 500 µM SAM, 2 mM Ti(III) citrate, pH 7.5, room temperature
T5 construct: gene D7V80_23740; codon-optimised gene in pSUMO, N-terminal SUMO tag cleaved with Ulp1; E. coli BL21(DE3) with pDB1282 and pBAD42-BtuCEDFB; monomer; TLS groups span residues 5 to 704
T5 sequence (A0A3A8HCN5 1-645 F485W): T1 sequence (A0A3A8HCN5 1-645)

ccCysS [7] = target: T6, ccCysS (Corallococcus sp. CA054B, UniProt A0A3A8HCN5, F485Y); assay: LC-MS product quantification; type: biochemical; conditions: 500 µM SAM, 2 mM Ti(III) citrate, pH 7.5, room temperature
T6 construct: gene D7V80_23740; codon-optimised gene in pSUMO, N-terminal SUMO tag cleaved with Ulp1; E. coli BL21(DE3) with pDB1282 and pBAD42-BtuCEDFB; monomer; TLS groups span residues 5 to 704
T6 sequence (A0A3A8HCN5 1-645 F485Y): T1 sequence (A0A3A8HCN5 1-645)

| Compound | X-ray crystal structure, 2.00 Å (ccCysS [1]) | X-ray crystal structure, 1.75 Å (ccCysS [2]) | LC-MS product quantification (ccCysS [3]) | LC-MS product quantification (cbCysS) | LC-MS product quantification (ccCysS [4]) | LC-MS product quantification (ccCysS [5]) | LC-MS product quantification (ccCysS [6]) | LC-MS product quantification (ccCysS [7]) |
| --- | --- | --- | --- | --- | --- | --- | --- | --- |
| CCOc1cc(C(=O)OCCNC(=O)CCNC(=O)[C@H](O)C(C)(C)CO)ccc1N [OEt, OEt substrate] | Structures with the OMe or OEt substrates have well-defined substrate electron densities |  |  |  |  |  |  |  |
| COc1cc(C(=O)OCCNC(=O)CCNC(=O)[C@H](O)C(C)(C)CO)ccc1N [OMe, OMe substrate] |  | Structures with the OMe or OEt substrates have well-defined substrate electron densities | changed to Ala, the variant shows much lower activity across all three methylations | In reactions using the OMe substrate, only the OEt and O^iPr products are detected |  |  |  |  |
| CC(C)Oc1cc(C(=O)OCCNC(=O)CCNC(=O)[C@H](O)C(C)(C)CO)ccc1N [OiPr, O^iPr substrate] |  |  |  | The O^sBu and O^tBu products are observed only when starting from the O^iPr substrate | The O^sBu and O^tBu products are observed only when starting from the O^iPr substrate | The F485L variant, less bulky than wild-type (WT) ccCysS, produces methylated products in roughly equal amounts | F485Y and F485W yield fewer overall methylated products | F485Y and F485W yield fewer overall methylated products |
